# Experiments:
# Assay type in all cases: in vivo
# [1] = tested on: male ICR mice; experiment: Open field test; settings: for Movement speed / Movement time / Stay time in the middle area: mice, gavage for 14 days, within 10 minutes, x ± s
# Protocol: (§1) 30 SPF-level 4-week-old male ICR (Institute of Cancer Research) mice were adaptively reared for 1 week and then randomly divided into 3 groups with 10 mice in each group. An experimental group and a blank group were given an aqueous solution of the 1-carboxy-2-hydroxy-3-iminopropane and water at a dose of 1.0 g/kg·bw by gavage respectively, and a positive control group was given an aqueous solution of estazolam at a dose of 2 mg/kg·bw by the gavage. After continuous gavage for 14 days, tests were carried out. The tests were carried out around 25° C. in a quiet environment.
# An open field maze of 4 units (each unit 50 cm×50 cm×38 cm) consisting of 4 activity spaces were used in the test, and 4 mice were tested each time. The open field spaces were cleaned with alcohol before the test, and the test was started 30 minutes after a sample group was administered (15 minutes after a positive control group was administered). During the test, tails of the mice were gently grasped, and the mice were placed in the middle of each unit of the open field maze for adaption for 5 minutes. A software start button was clicked to activate software for tracking moving paths of the mice. With an average movement speed, a movement time and a stay time in the middle area within 10 minutes as indexes, data analysis was conducted by using EthoVision XT 11 software. After each test was completed, urine and feces were cleaned, and a bottom and an inner wall of the maze were sprayed with 5-10% ethanol and then wiped with paper to remove an odor left by the mice. Then, a next group of the mice was tested, and influence of the odor and residue on the next group of the mice was avoided.
# [2] = tested on: male ICR mice; experiment: Direct sleep observation test; settings: for 12 h sleep duration period: mice, sleep time within 12 hours after the gavage, x ± s
# Protocol: as §1
# After the open field test was completed, a direct sleep observation test was carried out the next night. 30 minutes after the gavage, a surveillance camera was used for observation, and a sleep time of the mice in each group within 12 hours after the gavage was recorded.
# [3] = tested on: male ICR mice; experiment: Pentobarbital sodium induced sleep test; set-up: Sleep duration period: unit not given here
# Protocol: as §1
# Before the test, a preliminary test was carried out to determine a dose of pentobarbital sodium by intraperitoneal injection. After the intraperitoneal injection, the dose when all mice fell asleep for a moderate time was used as a standard, and the test was carried out with this dose (50 mg/kg·bw). 30 minutes after the last gavage, the mice were given the pentobarbital sodium by intraperitoneal injection to induce sleep. The time from injection of the pentobarbital sodium to disappearance of a righting reflex was recorded as a sleep latency period of the mice. The time from the disappearance of the righting reflex to reappearance of the righting reflex was recorded as a […] of the mice. Whether or not the latency period of each group was shortened and whether or not the sleep time was prolonged were observed.
# [4] = mice, pentobarbital sodium 50 mg/kg·bw i.p. 30 minutes after the last gavage, x ± s
# [5] = pentobarbital sodium induced sleep, vs blank group, P<0.05
Structure (SMILES),Movement speed [1] [cm/s],Movement time [1] [s],Stay time in the middle area [1] [%],"effect on stay time in the middle area of the mice (in words) ([1]; vs blank group, P<0.01)","effect on movement speed of the mice (in words) ([1]; vs blank group, P<0.05)","effect on movement time of the mice (in words) ([1]; vs blank group, P<0.05)",12 h sleep duration period [2] [min],"total sleep duration period within 12 hours (in words) ([2]; vs blank group, P<0.05)","Latency period [3, 4] [s]","Sleep duration period [3, 4]","sleep duration period prolonged by [3, 5] [%]","sleep latency period shortened by [3, 5] [%]"
N=CC(O)CC(=O)O (centres unmarked) [1-carboxy-2-hydroxy-3-iminopropane],4.66 ± 1.14,333.76 ± 56.84,17.81 ± 5.14,significantly increased,significantly reduced,significantly reduced,374.33 ± 24.48,longer than that of the blank group,3.60 ± 0.368,34.73 ± 12.71,61.49,24.62
"Clc1ccc2c(c1)C(c1ccccc1)=NCc1nncn1-2 [estazolam, reference compound]",4.60 ± 0.96,325.85 ± 51.64,20.63 ± 9.01,–,–,–,404.10 ± 34.03,–,2.81 ± 0.57,–,–,–

# From patent US11655208B2, “1-carboxy-2-hydroxy-3-iminopropane and extraction method thereof” (Jiangnan University, priority 2020, dated 2023)
